Consider 13 compounds from article PMC7663272, “Discovery of Tricyclic Pyranochromenone as Novel Bruton’s Tyrosine Kinase Inhibitors with In Vivo Antirheumatic Activity” (International Journal of Molecular Sciences, 2020).

One assay relates to BTK. Set-up: method as in not given. The settings on record: reported tricyclic BTK inhibitors, printed in Figure 2b; ref not given; cited from earlier work.
The target in a further assay is T1, BTK-wt (Homo sapiens, UniProt Q06187).
T1 construct: purchased Reaction Biology Corporation
T1 sequence (Q06187 whole entry): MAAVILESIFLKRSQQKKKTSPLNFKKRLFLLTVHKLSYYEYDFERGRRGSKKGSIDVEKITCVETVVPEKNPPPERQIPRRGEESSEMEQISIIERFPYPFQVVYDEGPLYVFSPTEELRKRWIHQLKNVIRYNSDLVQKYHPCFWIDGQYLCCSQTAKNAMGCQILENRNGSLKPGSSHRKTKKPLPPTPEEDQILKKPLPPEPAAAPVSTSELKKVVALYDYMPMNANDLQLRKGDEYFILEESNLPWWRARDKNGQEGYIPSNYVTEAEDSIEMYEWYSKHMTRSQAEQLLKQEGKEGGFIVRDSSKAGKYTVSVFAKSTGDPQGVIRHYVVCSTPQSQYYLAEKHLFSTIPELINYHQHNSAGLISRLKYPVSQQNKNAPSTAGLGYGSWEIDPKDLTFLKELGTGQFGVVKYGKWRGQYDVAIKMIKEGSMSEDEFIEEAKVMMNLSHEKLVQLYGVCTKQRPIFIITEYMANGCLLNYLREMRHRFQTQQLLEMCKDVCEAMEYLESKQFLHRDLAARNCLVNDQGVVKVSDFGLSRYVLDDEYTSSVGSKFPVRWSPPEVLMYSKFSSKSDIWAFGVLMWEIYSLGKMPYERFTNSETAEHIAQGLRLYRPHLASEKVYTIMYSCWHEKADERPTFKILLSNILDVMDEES
In words: HotSpot kinase enzymatic assay, BTK-wt. The format is biochemical. The settings on record: for inhibition at 10 µM: vs negative control (DMSO), mean of two separate experiments, NA = not active at 10 µM, read-out: % Inhibition (10 µM) BTK-wt; for IC50: HotSpot assay, 10 μM ATP, GraphPad Prism. The procedure: (§1) Kinase enzymatic assays for BTK, BMX, TXK, TEC, ITK, EGFR, ERBB2, ERBB4, and JAK3 were performed at Reaction Biology Corporation (www.reactionbiology.com, Malvern, PA, USA) using the HotSpot assay platform. Briefly, specific kinase/substrate pairs and the required cofactors were prepared in a reaction buffer comprising 20 mM HEPES (pH 7.5), 10 mM MgCl2, 1 mM EGTA, 0.02% Brij35, 0.02 mg/mL BSA, 0.1 mM Na3VO4, 2 mM DTT, and 1% DMSO. The compounds were added to the reaction mixture and allowed to incubate. Approximately 20 min later, a mixture of ATP (Sigma-Aldrich, St. Louis, MO, USA) and ^33P ATP (PerkinElmer, Waltham, MA, USA) was added to the reaction mixture at a final concentration of 10 μM. The reactions were performed at room temperature for 120 min; subsequently, the reactions were spotted onto P81 ion exchange filter papers (Whatman Inc., Maidstone, UK). […] GraphPad Prism software was used to obtain the IC50 values and perform curve fitting.

Another assay deals with T2, BTK-C481S (Homo sapiens, UniProt Q06187, C481S).
T2 construct: purchased Reaction Biology Corporation
T2 sequence (Q06187 whole entry C481S): as the sequence (Q06187 whole entry) above, with C481S counted along it
In words: HotSpot kinase enzymatic assay, mutant BTK. The settings on record: vs negative control (DMSO), mean of two separate experiments. The format is biochemical.
Excerpt: To confirm the role of the electrophilic warhead groups, the acryloyl group of compound 8 was replaced with methylacryloyl (11) and propionyl (12) groups, which are less electrophilic or lack an electrophilic feature. […] The significant difference in the inhibitory activity of compounds 8 and 12 could explain the critical role of the acryloyl moiety in potentiating the BTK inhibitory activity of compound 8. […] It was also confirmed by comparison of the inhibitory activity of the representative compounds (8–10) with electrophilic warheads against wild-type BTK (BTK-wt) and mutant BTK (BTK-C481S).
as §1, with “UK). Any unbound phosphate was removed by thoroughly washing the filter papers with 0.75% phosphoric acid.” for “UK).”

Assay [1] has as its system collagen-induced arthritis (CIA). In words: Murine model of collagen-induced arthritis (CIA). The format is in vivo. To be noted: mice, 0.3 mg/kg, daily oral; t-test. The procedure:
The in vivo efficacy of compound 8 was evaluated in a murine inflammatory model of collagen-induced arthritis (CIA). The study included four groups: a vehicle-treated control group and three treatment groups. The treatment groups comprised a dexamethasone-treated group, in which dexamethasone served as the positive control, and two treatment groups, in which animals were treated with compound 8 at doses of 10 and 50 mg/kg. Compound 8 was administered once daily for 15 days by oral gavage, and the in vivo efficacy was evaluated by measuring the clinical score and foot volume. […] There were no significant changes in the body weights of animals in all the treatment groups (data not shown) during treatment.
The animal study was approved by the Institutional Animal Care and Use Committee (IACUC) of the Korea Research Institute of Bioscience and Biotechnology on March 15, 2017, under approval number KRIBB-AEC-17090. Male DBA1/JNCrli mice (7 weeks old) were purchased from Japan CRL, Inc. The mice were housed in specific pathogen-free (SPF) conditions and were allowed ad libitum access to food and water. After 7 days of acclimatization, the mice were immunized with 0.05 mL of a type II collagen emulsion (Hooke Kit^TM Chicken Collagen, Cat. No. EK-0210 from Hooke) and Freund’s complete adjuvant by subcutaneous injection at 1.5 cm distal from the base of the tail. After 21 days, the immunized mice were administered a booster injection with 0.05 mL of a type II collagen emulsion (Hooke Kit^TM Chicken Collagen, Cat. No. EK-0211 from Hooke) and Freund’s incomplete adjuvant. The emulsions were prepared according to the manufacturer’s instructions. On day 21, the mice with CIA were randomized into four groups. The animals in the four groups were administered either 0.3 mg/kg dexamethasone (n = 5), 10 mg/kg compound 8 (n = 5), 50 mg/kg compound 8 (n = 5), or vehicle (n = 5), once a day, for […], orally. The vehicle, in which all test compounds were suspended, comprised DMAC (10%), Tween 80 (10%), and DW (80%). Clinical arthritis scores and body weights were assessed three times per week for 15 days. The paw volumes were measured using a LE7500 plethysmometer (Panlab, Barcelona, Spain) on days 0 and 42.

“Also recorded” adds a separate entry of the source.

A word on the IC50: it is the midpoint of a concentration-inhibition curve. In the case of `Cc1c(-c2c(F)cc(C(N)=O)c3[nH]c4c(c23)CC[C@H](C(C)(C)O)C4)cccc1-n1c(=O)c2cccc(F)c2n(C)c1=O` [BMS-986142], the 50% inhibitory concentration (IC50) in the assay on BTK was 0.0005 µM.
Broadly, the inhibition is the share of the control response that was lost under treatment. With `CC(C)=CC(=O)O[C@H]1Cc2cc3ccc(=O)oc3cc2OC1(C)C` [Compound 1, Decursin], on BTK-wt, the “BTK inhibitory activity (in words)” value was “weak inhibitory activity”, the inhibition at 10 µM was found to be 32% and the concentration for half-maximal inhibition (IC50) was above 10 µM.
Consider `CC1(C)Oc2cc3oc(=O)ccc3cc2C[C@@H]1O` [Compound 2, S-(+)-Decursinol], for which, on BTK-wt, the “BTK inhibitory activity (in words)” value was “inactive”, the inhibition at 10 µM came out at 7.7% and the IC50 is above 10 µM.
Consider `C/C=C/C(=O)O[C@H]1Cc2cc3ccc(=O)oc3cc2OC1(C)C` [Compound 3, (7S)-(+)-But-2-enoic acid, 8,8-dimethyl-2-oxo-6,7-dihydro-2H,8H-pyrano[3,2-g]chromen-7-ylester], for which, on BTK-wt, the “BTK inhibitory activity (in words)” value was “minimal inhibitory activity”, the inhibition at 10 µM was 11.3% and the IC50 was above 10 µM.
Consider `CC1(C)Oc2cc3oc(=O)ccc3cc2C[C@@H]1OC(=O)/C=C/CBr` [Compound 4], for which, at BTK-wt, the “BTK inhibitory activity (in words)” value is recorded as “minimal inhibitory activity”, the inhibition at 10 µM was 20.3% and the IC50 is above 10 µM.
On to `CC1(C)Oc2cc3oc(=O)ccc3cc2C[C@@H]1OC(=O)/C=C/c1ccccc1` [Compound 5, (7S)-(+)-trans-Cinnamic acid, 8,8-dimethyl-2-oxo-6,7-dihydro-2H,8H-pyrano[3,2-g]chromen-7-yl ester], for which, on BTK-wt, the “BTK inhibitory activity (in words)” value was “no BTK inhibitory activity” and the IC50 was above 10 µM.
Regarding `CC1(C)Oc2cc3oc(=O)ccc3cc2C[C@@H]1OC(=O)/C=C/c1ccc(F)cc1` [Compound 6, (7S)-(+)-trans-4-Fluorocinnamic acid, 8,8-dimethyl-2-oxo-6,7-dihydro-2H,8H-pyrano[3,2-g]chromen-7-yl ester], on BTK-wt, the “BTK inhibitory activity (in words)” value is recorded as “no BTK inhibitory activity” and the concentration for half-maximal inhibition (IC50) is above 10 µM.
Consider `CC#CC(=O)O[C@H]1Cc2cc3ccc(=O)oc3cc2OC1(C)C` [Compound 7, (7S)-(+)-But-2-yonic acid, 8,8-dimethyl-2-oxo-6,7-dihydro-2H,8H-pyrano[3,2-g]chromen-7-ylester], for which, at BTK-wt, the “BTK inhibitory activity (in words)” value is given as “relatively low BTK inhibitory activity”, the inhibition at 10 µM was 34.5% and it took 7 µM to reach half-maximal inhibition (IC50).
In the case of `C=CS(=O)(=O)O[C@H]1Cc2cc3ccc(=O)oc3cc2OC1(C)C` [Compound 9, (7S)-(+)-Ethenesulfonic acid, 8,8-dimethyl-2-oxo-6,7-dihydro-2H,8H-pyrano [3,2-g]chromen-7-yl ester], the inhibition at 10 µM worked out at 15.8% at BTK-C481S and 95.8% at BTK-wt. Besides, the IC50 on BTK-wt is 0.9 µM.
With `CC1(C)Oc2cc3oc(=O)ccc3cc2C[C@@H]1OC(=O)CCl` [Compound 10, (7S)-(+)-Chloroacetic acid, 8,8-dimethyl-2-oxo-6,7-dihydro-2H,8H-pyrano [3,2-g]chromen-7-ylester], the inhibition at 10 µM at BTK-C481S came out at 18.6%; on BTK-wt, 99.2%. For the same compound, the half-maximal inhibitory concentration (IC50) against BTK-wt is 0.5 µM.
Take `C=C(C)C(=O)O[C@H]1Cc2cc3ccc(=O)oc3cc2OC1(C)C` [Compound 11, (7S)-(+)-2-Methylacrylic acid, 8,8-dimethyl-2-oxo-6,7-dihydro-2H,8H-pyrano[3,2-g]chromen-7-yl ester]: on BTK-wt, the “BTK inhibitory activity (in words)” value was “completely diminished” and the IC50 was above 10 µM.
As for `CCC(=O)O[C@H]1Cc2cc3ccc(=O)oc3cc2OC1(C)C` [Compound 12, (7S)-(+)-Propionic acid, 8,8-dimethyl-2-oxo-6,7-dihydro-2H,8H-pyrano [3,2-g]chromen-7-ylester], at BTK-wt, the “BTK inhibitory activity (in words)” value is recorded as “completely diminished; also recorded: BTK inhibitory activity was lost” and the IC50 was above 10 µM.
`C[C@@H]1C[C@H]2[C@@H]3CCC4=CC(=O)C=C[C@]4(C)[C@@]3(F)[C@@H](O)C[C@]2(C)[C@@]1(O)C(=O)CO` [dexamethasone, reference compound]: the “clinical scores vs control” value in assay [1] is listed as “differed significantly from those with the control”.
